Results taken from PMC8053501 (Diabetes, Metabolic Syndrome and Obesity: Targets and …, 2021).
Read-outs that look alike come from different tables or passages of the source.

Columns and labels:
[1] = tested on: diabetes mellitus patients; assay: Acute kidney injury; assay type: in vivo, human; settings: for Association with AKI, Unadjusted (95% CI) / Association with AKI, Adjusted (95% CI): metformin as reference; for Association with AKI, Adjusted (95% CI): multivariate
in vivo = settings: male, ICR, mouse, po; for Cmax: oral gavage
[2] = normal mice, oral gavage, 3mg/kg
[3] = Endpoint Diagnosis with 1047 Outcome
[4] = Secondary Diagnosis with 3919 Outcomes

Compound: N#C[C@@H]1CCCN1C(=O)CNC12CC3CC(CC(O)(C3)C1)C2 [Vildagliptin, vildagliptin]
- Association with AKI, Unadjusted (95% CI) [1, 3]: 1.23 (0.97–1.32)
- Association with AKI, Adjusted (95% CI) [1, 3]: 1.18 (0.92–1.35)
- Association with AKI, Unadjusted (95% CI) [1, 4]: 1.20 (0.72–1.38)
- Association with AKI, Adjusted (95% CI) [1, 4]: 1.07 (0.95–1.45)
- Events During the 90 days (AKI) ([1]; primary endpoint, first 90 days, patients above 55 years): 79
- Total endpoint (AKI events) ([1]; primary plus secondary endpoint): 316
- Events at secondary end (AKI) ([1]; secondary endpoint, after 90 days of hospital admission): 237
- Total Percent (incidence rate of AKI at the end of the study) ([1]; share of the 4966 total outcomes): 6.36%
- Tmax (in vivo): 30 min
- Tmax (in vivo; 3 mg/kg): 30 min
- Cmax (in vivo; 3 mg/kg, Kidney): 5870 ng/mL
- Cmax (in vivo; 3 mg/kg, Liver): 5030 ng/mL
- Cmax (in vivo; 3 mg/kg, Plasma): 765 ng/mL
- Drug concentration, time course ([2]; Kidney, 0h): 0
- Drug concentration, time course ([2]; Kidney, 3h): 4500
- Drug concentration, time course ([2]; Kidney, 6h): 3950
- Drug concentration, time course ([2]; Kidney, 9h): 1650
- Drug concentration, time course ([2]; Kidney, 12h): 100
- Drug concentration, time course ([2]; Kidney, 15h): 25
- Drug concentration, time course ([2]; Kidney, 18h): 0
- Drug concentration, time course ([2]; Kidney, 21h): 0
- Drug concentration, time course ([2]; Kidney, 24h): 0
- Drug concentration, time course ([2]; Liver, 0h): 0
- Drug concentration, time course ([2]; Liver, 3h): 8300
- Drug concentration, time course ([2]; Liver, 6h): 4800
- Drug concentration, time course ([2]; Liver, 9h): 2900
- Drug concentration, time course ([2]; Liver, 12h): 300
- Drug concentration, time course ([2]; Liver, 15h): 50
- Drug concentration, time course ([2]; Liver, 18h): 0
- Drug concentration, time course ([2]; Liver, 21h): 0
- Drug concentration, time course ([2]; Liver, 24h): 0
- Drug concentration, time course ([2]; Plasma, 0h): 0
- Drug concentration, time course ([2]; Plasma, 3h): 7500
- Drug concentration, time course ([2]; Plasma, 6h): 3000
- Drug concentration, time course ([2]; Plasma, 9h): 1200
- Drug concentration, time course ([2]; Plasma, 12h): 600
- Drug concentration, time course ([2]; Plasma, 15h): 200
- Drug concentration, time course ([2]; Plasma, 18h): 0
- Drug concentration, time course ([2]; Plasma, 21h): 0
- Drug concentration, time course ([2]; Plasma, 24h): 0
